Experimental data published in patent US20230159467A1, “NOVEL COMPOUNDS USEFUL IN THE TREATMENT AND/OR PREVENTION OF A DISEASE, DISORDER OR CONDITION ASSOCIATED WITH ANGIOTENSIN II” (Vicore Pharma AB, priority 2020, published 2023).

Experiments:
CYP3A = experiment: CYP450 inhibition assay, pooled human liver microsomes, midazolam substrate; conditions: for inhibition at 10 min, 10 µM: both, human, pooled human liver microsomes, pH 7.4, probe midazolam; for CYP 450 Inhibition CYP3A midazolam: at 10 μM, midazolam substrate
[1] = Stability in human liver microsomes; format: in vitro ADME; conditions: half-life
Description: (§1) Stability in liver microsomes. Human, mouse and rat liver microsomes were used to assess the metabolic stability for the compounds. Metabolic stability was determined in 0.5 mg/mL human, mouse or rat liver microsomes at a compound concentration of 1 μM in 100 mM potassium phosphate buffer (pH 7.4) in a total incubation volume of 500 μL by Eurofins. The assay matrix was: human liver microsomes: mixed gender and pool of 50, rat liver microsomes: male, Sprague-Dawley, pool of 100 or more and mouse liver microsomes: male,CD-1, pool of 250 or more. Final microsomal protein concentration: 0.1mg/mL. The test concentration was 0.1 μM with 0.01% DMSO, 0.25% acetonitrile and 0.25% methanol by default. […] The reaction was initiated by adding NADPH-generating system and was incubated for 0, 15, 30, 45, and 60 min. The reaction was stopped by transferring the incubation mixture to acetonitrile/methanol. Samples were then mixed and centrifuged. Four reference compounds were tested in each assay. Propranolol and imipramine are relatively stable, whereas verapamil and terfenadine are readily metabolized inhuman liver microsomes. Samples were analyzed by HPLC-MS/MS using selected reaction monitoring. The HPLC system consisted of a binary LC pump with autosampler, a C-18 column, and a gradient. Peak areas corresponding to the test compound were recorded. The compound remaining was calculated by comparing the peak area at each time point to time zero. The half-life was calculated from the slope of the initial linear range of the logarithmic curve of compound remaining (%) vs. time, assuming first order kinetics. In addition, the intrinsic clearance (Clint) was calculated.^19,20

human AT2R = biological target: T1, human AT2R (Homo sapiens, UniProt P50052); format: binding; conditions: HEK-293 cell membranes
T1 construct: host or cells: HEK-293
T1 sequence (P50052 1-363): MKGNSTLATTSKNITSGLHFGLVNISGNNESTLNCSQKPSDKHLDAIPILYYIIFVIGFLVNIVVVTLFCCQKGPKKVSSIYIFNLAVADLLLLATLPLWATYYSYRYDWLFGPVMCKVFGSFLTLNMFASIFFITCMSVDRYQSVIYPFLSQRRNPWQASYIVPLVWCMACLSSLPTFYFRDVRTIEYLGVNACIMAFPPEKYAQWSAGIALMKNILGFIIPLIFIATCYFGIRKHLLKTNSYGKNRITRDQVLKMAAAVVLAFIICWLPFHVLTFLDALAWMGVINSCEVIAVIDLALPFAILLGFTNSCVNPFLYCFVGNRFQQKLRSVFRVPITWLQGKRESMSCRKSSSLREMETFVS

[2] = Stability in mouse liver microsomes; format: in vitro ADME; conditions: half-life
Description: as §1

CYP2D6 = CYP2D6 (Homo sapiens, UniProt P10635); experiment: CYP450 inhibition assay, pooled human liver microsomes, dextromethorphan substrate; conditions: for inhibition at 10 min, 10 µM: both, human, pooled human liver microsomes, pH 7.4, probe dextromethorphan; for CYP 450 Inhibition CYP2D6: at 10 μM
CYP2D6, sequence (P10635 whole entry): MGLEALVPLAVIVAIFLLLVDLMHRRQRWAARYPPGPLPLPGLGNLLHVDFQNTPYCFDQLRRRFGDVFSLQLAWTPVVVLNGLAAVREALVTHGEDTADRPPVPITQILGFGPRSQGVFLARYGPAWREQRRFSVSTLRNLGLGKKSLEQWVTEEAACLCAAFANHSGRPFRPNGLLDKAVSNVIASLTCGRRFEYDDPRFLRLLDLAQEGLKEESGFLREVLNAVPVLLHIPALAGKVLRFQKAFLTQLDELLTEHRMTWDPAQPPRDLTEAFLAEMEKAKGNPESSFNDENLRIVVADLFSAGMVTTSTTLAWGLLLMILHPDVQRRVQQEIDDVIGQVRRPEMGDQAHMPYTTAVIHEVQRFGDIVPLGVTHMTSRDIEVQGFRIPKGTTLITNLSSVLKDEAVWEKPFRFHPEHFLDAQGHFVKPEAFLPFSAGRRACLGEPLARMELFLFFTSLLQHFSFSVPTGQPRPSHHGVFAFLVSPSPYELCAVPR

CYP2B6 = biological target: T2, CYP2B6 (Homo sapiens, UniProt P20813); experiment: CYP450 inhibition assay, pooled human liver microsomes, bupropion substrate; conditions: for inhibition at 10 min, 10 µM: both, human, pooled human liver microsomes, pH 7.4, probe bupropion; for CYP 450 Inhibition CYP2B6: at 10 μM
T2 sequence (P20813 1-491): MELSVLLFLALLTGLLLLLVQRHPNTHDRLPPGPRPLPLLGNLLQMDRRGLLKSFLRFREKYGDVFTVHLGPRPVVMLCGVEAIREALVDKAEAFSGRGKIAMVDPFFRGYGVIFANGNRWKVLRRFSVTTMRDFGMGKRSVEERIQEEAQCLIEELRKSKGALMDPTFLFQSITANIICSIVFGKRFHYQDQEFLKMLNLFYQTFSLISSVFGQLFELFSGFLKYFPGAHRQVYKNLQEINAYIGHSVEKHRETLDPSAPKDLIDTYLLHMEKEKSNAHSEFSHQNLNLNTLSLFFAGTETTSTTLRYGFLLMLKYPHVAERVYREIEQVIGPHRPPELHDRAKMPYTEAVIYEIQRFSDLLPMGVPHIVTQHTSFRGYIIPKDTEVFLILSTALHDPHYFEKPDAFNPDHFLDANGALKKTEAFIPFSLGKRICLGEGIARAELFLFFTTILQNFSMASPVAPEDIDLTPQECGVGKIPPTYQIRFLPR

[3] = Stability in rat liver microsomes; format: in vitro ADME; conditions: half-life
Description: as §1

CYP2C9 = CYP2C9 (Homo sapiens, UniProt P11712); experiment: CYP450 inhibition assay, pooled human liver microsomes, diclofenac substrate; conditions: for inhibition at 10 min, 10 µM: both, human, pooled human liver microsomes, pH 7.4, probe diclofenac; for CYP 450 Inhibition CYP2C9: at 10 μM
CYP2C9, sequence (P11712 whole entry): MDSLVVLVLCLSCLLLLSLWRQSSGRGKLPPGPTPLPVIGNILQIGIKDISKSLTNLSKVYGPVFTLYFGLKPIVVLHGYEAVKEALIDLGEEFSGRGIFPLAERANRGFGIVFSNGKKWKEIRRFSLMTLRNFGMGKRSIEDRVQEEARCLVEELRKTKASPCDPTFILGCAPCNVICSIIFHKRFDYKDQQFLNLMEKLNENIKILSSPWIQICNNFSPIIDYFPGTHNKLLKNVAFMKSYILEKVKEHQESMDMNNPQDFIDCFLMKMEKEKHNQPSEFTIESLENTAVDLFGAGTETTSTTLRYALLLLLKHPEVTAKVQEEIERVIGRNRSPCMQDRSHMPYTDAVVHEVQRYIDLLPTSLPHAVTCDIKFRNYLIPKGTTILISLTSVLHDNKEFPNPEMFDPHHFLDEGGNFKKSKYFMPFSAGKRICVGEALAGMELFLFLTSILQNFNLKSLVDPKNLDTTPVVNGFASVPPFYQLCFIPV

CYP1A = biological target: T3, CYP1A (Homo sapiens, UniProt P05177); experiment: CYP450 inhibition assay, pooled human liver microsomes, phenacetin substrate; conditions: for inhibition at 10 min, 10 µM: both, human, pooled human liver microsomes, pH 7.4, probe phenacetin; for CYP 450 Inhibition CYP1A: at 10 μM
T3 sequence (P05177 1-516): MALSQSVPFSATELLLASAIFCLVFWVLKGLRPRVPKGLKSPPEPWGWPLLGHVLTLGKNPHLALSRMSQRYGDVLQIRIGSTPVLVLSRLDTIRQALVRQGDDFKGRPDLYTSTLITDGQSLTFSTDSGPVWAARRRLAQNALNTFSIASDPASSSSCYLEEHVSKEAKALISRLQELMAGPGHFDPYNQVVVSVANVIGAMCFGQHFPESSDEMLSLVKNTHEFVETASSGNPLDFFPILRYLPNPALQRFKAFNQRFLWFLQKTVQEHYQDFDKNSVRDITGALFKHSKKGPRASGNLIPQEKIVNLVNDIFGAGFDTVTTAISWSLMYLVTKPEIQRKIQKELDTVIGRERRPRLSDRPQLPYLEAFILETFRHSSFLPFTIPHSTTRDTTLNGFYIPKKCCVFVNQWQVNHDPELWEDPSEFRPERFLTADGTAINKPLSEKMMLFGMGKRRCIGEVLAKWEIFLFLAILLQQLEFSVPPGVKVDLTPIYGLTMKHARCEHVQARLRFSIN

human AT1R = biological target: T4, human AT1R (Homo sapiens, UniProt P30556); format: binding; conditions: HEK-293 cell membranes
T4 construct: host or cells: HEK-293
T4 sequence (P30556 1-359): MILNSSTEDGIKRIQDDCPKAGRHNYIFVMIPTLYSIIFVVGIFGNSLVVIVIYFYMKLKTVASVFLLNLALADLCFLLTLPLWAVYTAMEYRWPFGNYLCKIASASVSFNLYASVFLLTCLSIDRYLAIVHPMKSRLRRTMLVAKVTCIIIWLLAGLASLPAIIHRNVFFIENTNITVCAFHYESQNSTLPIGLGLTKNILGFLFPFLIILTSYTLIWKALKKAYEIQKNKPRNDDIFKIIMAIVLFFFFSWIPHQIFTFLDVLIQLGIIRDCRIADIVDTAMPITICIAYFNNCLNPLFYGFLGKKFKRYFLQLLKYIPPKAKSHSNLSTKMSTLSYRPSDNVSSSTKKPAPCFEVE

inhibition at 10 min, 10 µM (CYP3A)	Stability in liver microsomes HLM [1]	Ki (human AT2R)	Stability in liver microsomes MLM [2]	inhibition at 10 min, 10 µM (CYP2D6)	inhibition at 10 min, 10 µM (CYP2B6)	Stability in liver microsomes RLM [3]	inhibition at 10 min, 10 µM (CYP2C9)	inhibition at 10 min, 10 µM (CYP1A)	Ki (human AT1R)	CYP 450 Inhibition CYP3A midazolam (CYP3A)	CYP 450 Inhibition CYP2D6 (CYP2D6)	CYP 450 Inhibition CYP2B6 (CYP2B6)	CYP 450 Inhibition CYP2C9 (CYP2C9)	CYP 450 Inhibition CYP1A (CYP1A)	SMILES
0%	>60 min	1.1 nM	>60 min	9%	18%	>60 min	37%	11%	~1000 nM						COC(=O)NS(=O)(=O)c1ccc(CC(C)C)cc1-c1ccc(Cn2ccnc2C(C)(C)C)cc1 [Example 1A, Methyl ((4′-((2-(tert-butyl)-1H-imidazol-1-yl)methyl)-5-isobutyl-[1,1′-biphenyl]-2-yl)sulfonyl)carbamate]
	>60 min	29 nM	>60 min			>60 min			~1000 nM	5.4%	12%	24%	23%	8.4%	COC(=O)NS(=O)(=O)c1sc(CC(C)C)nc1-c1ccc(Cn2ccnc2C(C)(C)C)cc1 [Example 3, Methyl ((4-(4-((2-(tert-butyl)-1H-imidazol-1-yl)methyl)phenyl)-2-isobutylthiazol-5-yl)sulfonyl) carbamate]
	45 min	18 nM	7 min			12 min			~1000 nM	24%	12%	29%	68%	−7.3%	CCCCOC(=O)NS(=O)(=O)c1sc(CC(C)C)nc1-c1ccc(Cn2ccnc2C(C)(C)C)cc1 [Example 4, Butyl ((4-(4-((2-(tert-butyl)-1H-imidazol-1-yl)methyl)phenyl)-2-isobutylthiazol-5-yl)sulfonyl) carbamate]
1.3%	>60 min	3.2 nM	>60 min	2.5%	28%	41 min	92%	5.7%	~1000 nM						COC(=O)[N-]S(=O)(=O)c1ccc(CC(C)C)cc1-c1ccc(Cn2ccnc2C(C)(C)O)cc1.[K+] [Example 8B, Potassium ((4′-((2-(2-hydroxypropan-2-yl)-1H-imidazol-1-yl)methyl)-5-isobutyl-[1,1′-biphenyl]-2-yl)sulfonyl)(methoxycarbonyl)amide]

SMILES	inhibition at 10 min, 10 µM (CYP3A)	Stability in liver microsomes HLM [1]	Ki (human AT2R)	Stability in liver microsomes MLM [2]	inhibition at 10 min, 10 µM (CYP2D6)	inhibition at 10 min, 10 µM (CYP2B6)	Stability in liver microsomes RLM [3]	inhibition at 10 min, 10 µM (CYP2C9)	inhibition at 10 min, 10 µM (CYP1A)	Ki (human AT1R)	CYP 450 Inhibition CYP3A midazolam (CYP3A)	CYP 450 Inhibition CYP2D6 (CYP2D6)	CYP 450 Inhibition CYP2B6 (CYP2B6)	CYP 450 Inhibition CYP2C9 (CYP2C9)	CYP 450 Inhibition CYP1A (CYP1A)
CCCCOC(=O)[N-]S(=O)(=O)c1sc(CC(C)C)cc1-c1ccc(Cn2ccnc2C(C)(C)C)cc1.[K+] [Example 11B, Potassium (butoxycarbonyl)((3-(4-((2-(tert-butyl)-1H-imidazol-1-yl)methyl)phenyl)-5-isobutylthiophen-2-yl)sulfonyl)amide]	-5.1%	11 min	6.6 nM	10 min	14%	51%	18 min	88%	8.4%	~1000 nM					
